Experimental data reported in patent US7727960B2, “C5a receptor antagonists” (Jerini AG, priority 2003, dated 2010).
Starred links: 1 amine or outer side, 2 acyl side, 3 side chain; linkers in the order of their positions; H or OH if unused. Positions of bridges follow the written chain, without caps; N, C: chain ends. Non-standard residues stand in square brackets, D forms with d. Residues, ends and D or L forms follow the SMILES beside them. *: point of attachment. X2 = COC1O[C@H](C(=O)[*:2])[C@@H](O)[C@H](O)[C@H]1N[*:1]; X4 = O=C1CCC(=O)N1[C@@H](Cc1ccccc1)C(=O)*; Dip = N[C@H](C(=O)O)C(c1ccccc1)c1ccccc1; Phe(4-NH2) = Nc1ccc(C[C@H](N)C(=O)O)cc1; Phe(4-Me) = Cc1ccc(C[C@H](N)C(=O)O)cc1; 2Nal = N[C@@H](Cc1ccc2ccccc2c1)C(=O)O; Bta = N[C@@H](Cc1csc2ccccc12)C(=O)O; Hydrocinnamoyl = O=C(CCc1ccccc1)*; 4Pal = N[C@@H](Cc1ccncc1)C(=O)O; 2Thi = N[C@@H](Cc1cccs1)C(=O)O; dCha = N[C@H](CC1CCCCC1)C(=O)O; AllylGly = C=CC[C@H](N)C(=O)O; Pip = O=C(O)[C@@H]1CCCCN1; Nle = CCCC[C@H](N)C(=O)O; Orn = NCCC[C@H](N)C(=O)O; Aze = O=C(O)[C@@H]1CCN1

Legend:
human C5aR (CD88) [1] = molecular target: T1, human C5aR (CD88) (Homo sapiens, UniProt P21730); test: Determination of EC50 values in an enzyme release assay (agonistic activity, no C5a added); type: cell-based; details: for agonistic activity (in words): cellular assay, up to a concentration of at least 1430 nM
T1 construct: expressed in transfected cells; host or cells: rat basophilic leukemia cells (RBL)
T1 sequence (P21730 1-350): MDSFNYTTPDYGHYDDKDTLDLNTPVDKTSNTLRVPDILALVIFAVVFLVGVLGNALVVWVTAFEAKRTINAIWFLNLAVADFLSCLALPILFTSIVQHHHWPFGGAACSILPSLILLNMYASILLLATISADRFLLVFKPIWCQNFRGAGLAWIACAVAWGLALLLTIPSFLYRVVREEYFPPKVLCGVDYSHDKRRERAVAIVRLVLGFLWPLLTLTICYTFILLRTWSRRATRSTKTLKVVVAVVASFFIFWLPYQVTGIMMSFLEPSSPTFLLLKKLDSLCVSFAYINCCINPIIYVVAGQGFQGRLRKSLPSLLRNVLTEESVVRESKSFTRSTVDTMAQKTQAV
Experimental: The determination of the EC50 value was performed in a way similar to the procedure described in example 11, with the only exception that 30 μl of the compound to be tested were mixed with 75 μl of the cell suspension described in example 11. There was no preincubation or addition of C5a for stimulation of the enzyme release.

human C5aR (CD88) [2] = molecular target: T1, human C5aR (CD88); test: Determination of the IC50 value in an enzyme release assay (functional assay, antagonistic activity); type: cell-based; details: for IC50-value compared to compound 40 (in words): arginine replaced by hydrophobic substitutions; for inhibitory activity (in words): noteworthy = IC50 of less than 200 nM in the functional assay
[3] = Solubility determination for selected C5aR-antagonists; type: physicochemical
Experimental: Solubility of compounds was determined by the following procedure: 20 μl of a 10 mM stock solution (in DMSO) of the compound were diluted in 980 μl of the solvent to be tested. After incubation for 24 h at RT under shaking the samples are centrifuged at 11.000 rpm in an Eppendorf centrifuge. The supematant is determined by photometry. […] Therefor the compound was suspended at 10 mg/ml in the solvent systems of choice. The undissolved part was removed by centrifugation after 24 h. The UV-absorption of the supernatant was measured and compared to a respective reference value 60% MeOH).

CC(=O)N[C@@H](Cc1ccccc1)C(=O)N[C@@H](CCCN)C(=O)N1CCC[C@H]1C(=O)N[C@H](CC1CCCCC1)C(=O)N[C@@H](Cc1csc2ccccc12)C(=O)N[C@@H](Cc1ccccc1)C(N)=O [Compound 62, Ac-Phe-Orn-Pro-cha-Bta-Phe-NH2] (Ac-F[Orn]P[dCha][Bta]F-NH2)
agonistic activity (in words) (human C5aR (CD88) [1]): pure antagonists

C=CC[C@@H]1NC(=O)[C@H](Cc2c[nH]c3ccccc23)NC(=O)[C@@H](CC2CCCCC2)NC(=O)[C@@H]2CCCN2C(=O)[C@@H](NC(=O)[C@H](Cc2ccccc2)NC(C)=O)CCCNC1=O [Compound 33, Ac-Phe-[Orn-Pro-cha-Trp-Eaf]] (Ac-F[Orn]P[dCha]W[AllylGly]; lactam 2-C)
IC50-value compared to compound 40 (in words) (human C5aR (CD88) [2]): without a significant increase of the IC50-value | inhibitory activity (in words) (human C5aR (CD88) [2]): noteworthy inhibitory activity | agonistic activity (in words) (human C5aR (CD88) [1]): pure antagonists

CC(=O)N[C@@H](Cc1ccccc1)C(=O)N[C@@H](CCCN)C(=O)N1CCCC[C@H]1C(=O)N[C@H](CC1CCCCC1)C(=O)N[C@@H](Cc1c[nH]c2ccccc12)C(=O)N[C@@H](Cc1ccccc1)C(N)=O [Compound 55, Ac-Phe-Orn-Pip-cha-Trp-Phe-NH2] (Ac-F[Orn][Pip][dCha]WF-NH2)
agonistic activity (in words) (human C5aR (CD88) [1]): pure antagonists

CC(=O)N[C@H](C(=O)N[C@@H](CCCN)C(=O)N1CCC[C@H]1C(=O)N[C@H](CC1CCCCC1)C(=O)N[C@@H](Cc1c[nH]c2ccccc12)C(=O)N[C@@H](Cc1ccccc1)C(N)=O)C(c1ccccc1)c1ccccc1 [Compound 71, Ac-Ebw-Orn-Pro-cha-Trp-Phe-NH2] (Ac-[Dip][Orn]P[dCha]WF-NH2)
agonistic activity (in words) (human C5aR (CD88) [1]): pure antagonists

CCCC[C@@H]1NC(=O)[C@H](Cc2c[nH]c3ccccc23)NC(=O)[C@@H](CC2CCCCC2)NC(=O)[C@@H]2CCCN2C(=O)[C@@H](NC(=O)[C@H](Cc2ccccc2)NC(=O)[C@H]2OC(OC)[C@H](NC(C)=O)[C@@H](O)[C@@H]2O)CCCNC1=O (stereo partly drawn) [Compound 4, X-Phe-[Orn-Pro-cha-Trp-Nle]; X = 2-acetamido-1-methyl-glucuronyl] (Ac-[X2]F[Orn]P[dCha]W[Nle]; lactam 3-C)
Solubility in 20 mM HEPES pH 7.4 ([3]; 20 mM HEPES pH 7.4, 24 h at RT): 84 % of 200 μM | solubility ([3]; aqueous HEPES buffer (pH 7.4)): 84%

H-Phe-[Orn-Pro-cha-Trp-Phe]
agonistic activity (in words) (human C5aR (CD88) [1]): pure antagonists

CC(=O)N[C@@H](Cc1ccccc1)C(=O)N[C@@H](Cc1c[nH]c2ccccc12)C(=O)N1CCC[C@H]1C(=O)N[C@H](CC1CCCCC1)C(=O)N[C@@H](Cc1c[nH]c2ccccc12)C(=O)N[C@@H](Cc1ccccc1)C(N)=O [Compound 84, Ac-Phe-Trp-Pro-cha-Trp-Phe-NH2] (Ac-FWP[dCha]WF-NH2)
agonistic activity (in words) (human C5aR (CD88) [1]): pure antagonists

CC(=O)N[C@@H](Cc1ccccc1)C(=O)N[C@@H](CCCNC(=N)N)C(=O)N1CCC[C@H]1C(=O)N[C@H](CC1CCCCC1)C(=O)N[C@@H](Cc1c[nH]c2ccccc12)C(=O)N[C@@H](Cc1ccccc1)C(N)=O [Compound 88, Ac-Phe-Arg-Pro-cha-Trp-Phe-NH2] (Ac-FRP[dCha]WF-NH2)
agonistic activity (in words) (human C5aR (CD88) [1]): pure antagonists

CCSC[C@@H]1NC(=O)[C@H](Cc2c[nH]c3ccccc23)NC(=O)[C@@H](CC2CCCCC2)NC(=O)[C@@H]2CCCN2C(=O)[C@@H](NC(=O)[C@H](Cc2ccccc2)NC(C)=O)CCCNC1=O [Compound 34, Ac-Phe-[Orn-Pro-cha-Trp-Ebd]] (Ac-F[Orn]P[dCha]WC(Et); lactam 2-C)
IC50-value compared to compound 40 (in words) (human C5aR (CD88) [2]): without a significant increase of the IC50-value | inhibitory activity (in words) (human C5aR (CD88) [2]): noteworthy inhibitory activity

CC(=O)N[C@@H](Cc1cccs1)C(=O)N[C@@H](CCCN)C(=O)N1CCCC[C@H]1C(=O)N[C@H](CC1CCCCC1)C(=O)N[C@@H](Cc1csc2ccccc12)C(=O)N[C@@H](Cc1ccccc1)C(N)=O [Compound 67, Ac-Thi-Orn-Pip-cha-Bta-Phe-NH2] (Ac-[2Thi][Orn][Pip][dCha][Bta]F-NH2)
agonistic activity (in words) (human C5aR (CD88) [1]): pure antagonists

CC(=O)N[C@@H](Cc1ccccc1)C(=O)N[C@H]1CCCNC(=O)[C@H](Cc2ccc3ccccc3c2)NC(=O)[C@H](Cc2c[nH]c3ccccc23)NC(=O)[C@@H](CC2CCCCC2)NC(=O)[C@@H]2CCCN2C1=O [Compound 37, Ac-Phe-[Orn-Pro-cha-Trp-2Ni]] (Ac-F[Orn]P[dCha]W[2Nal]; lactam 2-C)
IC50-value compared to compound 40 (in words) (human C5aR (CD88) [2]): without a significant increase of the IC50-value | inhibitory activity (in words) (human C5aR (CD88) [2]): noteworthy inhibitory activity

Ac-Phe-Orn-cha-cha-Bta-Phe-NH2
agonistic activity (in words) (human C5aR (CD88) [1]): pure antagonists

Ac-Phe-[Orn-Pro-cha-Trp-Ppa] (Ac-F[Orn]P[dCha]W[4Pal]; lactam 2-C (inferred))
inhibitory activity (in words) (human C5aR (CD88) [2]): noteworthy inhibitory activity

CC(=O)N[C@@H](Cc1ccccc1)C(=O)N[C@@H](CCCN)C(=O)N1CCC[C@H]1C(=O)N[C@H](CC1CCCCC1)C(=O)N[C@@H](Cc1c[nH]c2ccccc12)C(=O)N[C@@H](Cc1ccccc1)C(N)=O [Compound 51, Ac-Phe-Orn-Pro-cha-Trp-Phe-NH2] (Ac-F[Orn]P[dCha]WF-NH2)
agonistic activity (in words) (human C5aR (CD88) [1]): pure antagonists

CCCC[C@@H]1NC(=O)[C@H](Cc2c[nH]c3ccccc23)NC(=O)[C@@H](CC2CCCCC2)NC(=O)[C@H](CO)NC(=O)[C@@H](NC(=O)[C@@H](N)Cc2ccccc2)CCCNC1=O [Compound 44, H-Phe-[Orn-Ser-cha-Trp-Nle]] (H-F[Orn]S[dCha]W[Nle]; lactam 2-C)
agonistic activity (in words) (human C5aR (CD88) [1]): pure antagonists

CC(=O)N[C@@H](Cc1ccccc1)C(=O)N[C@H]1CCCNC(=O)[C@H](Cc2ccc(C)cc2)NC(=O)[C@H](Cc2c[nH]c3ccccc23)NC(=O)[C@@H](CC2CCCCC2)NC(=O)[C@@H]2CCCN2C1=O [Compound 36, Ac-Phe-[Orn-Pro-cha-Trp-Pmf]] (Ac-F[Orn]P[dCha]W[Phe(4-Me)]; lactam 2-C)
IC50-value compared to compound 40 (in words) (human C5aR (CD88) [2]): without a significant increase of the IC50-value | inhibitory activity (in words) (human C5aR (CD88) [2]): noteworthy inhibitory activity

Ac-Phe-[Orn-Hyp(COCH2OCH2CH2OCH2CH2OCH3)-cha-Trp-Phe]
inhibitory activity (in words) (human C5aR (CD88) [2]): noteworthy inhibitory activity

CC(=O)N[C@@H](Cc1ccccc1)C(=O)N[C@H]1CCCNC(=O)[C@H](Cc2ccc(N)cc2)NC(=O)[C@H](Cc2c[nH]c3ccccc23)NC(=O)[C@@H](CC2CCCCC2)NC(=O)[C@@H]2CCCN2C1=O [Compound 14, Ac-Phe-[Orn-Pro-cha-Trp-Paf]] (Ac-F[Orn]P[dCha]W[Phe(4-NH2)]; lactam 2-C)
inhibitory activity (in words) (human C5aR (CD88) [2]): noteworthy inhibitory activity

CC(=O)N[C@@H](Cc1ccccc1)C(=O)N[C@H]1CCCNC(=O)[C@H](Cc2cccs2)NC(=O)[C@H](Cc2c[nH]c3ccccc23)NC(=O)[C@@H](CC2CCCCC2)NC(=O)[C@@H]2CCCN2C1=O [Compound 38, Ac-Phe-[Orn-Pro-cha-Trp-Thi]] (Ac-F[Orn]P[dCha]W[2Thi]; lactam 2-C)
IC50-value compared to compound 40 (in words) (human C5aR (CD88) [2]): without a significant increase of the IC50-value | inhibitory activity (in words) (human C5aR (CD88) [2]): noteworthy inhibitory activity

CCCC[C@@H]1NC(=O)[C@H](Cc2c[nH]c3ccccc23)NC(=O)[C@@H](CC2CCCCC2)NC(=O)[C@@H]2CCCN2C(=O)[C@@H](NC(=O)CCc2ccccc2)CCCNC1=O [Compound 41, Ph—CH2—CH2—CO-[Orn-Pro-cha-Trp-Nle]] (Hydrocinnamoyl-[Orn]P[dCha]W[Nle]; lactam 1-C)
inhibitory activity (in words) (human C5aR (CD88) [2]): noteworthy inhibitory activity | agonistic activity (in words) (human C5aR (CD88) [1]): pure antagonists

CC(=O)N[C@@H](Cc1ccccc1)C(=O)N[C@@H](CCCN)C(=O)N1CC[C@H]1C(=O)N[C@H](CC1CCCCC1)C(=O)N[C@@H](Cc1c[nH]c2ccccc12)C(=O)N[C@@H](Cc1ccccc1)C(N)=O [Compound 83, Ac-Phe-Orn-Aze-cha-Trp-Phe-NH2] (Ac-F[Orn][Aze][dCha]WF-NH2)
agonistic activity (in words) (human C5aR (CD88) [1]): pure antagonists

NCCC[C@H](NC(=O)[C@H](Cc1ccccc1)N1C(=O)CCC1=O)C(=O)N1CCC[C@H]1C(=O)N[C@H](CC1CCCCC1)C(=O)N[C@@H](Cc1csc2ccccc12)C(=O)N[C@@H](Cc1ccccc1)C(N)=O [Compound 133, (—CO—CH2—CH2—CO—)-Phe-Orn-Pro-cha-Bta-Phe-NH2] (X4-[Orn]P[dCha][Bta]F-NH2)
IC50 (human C5aR (CD88) [2]; antagonistic activity, enzyme release assay in RBL cells expressing human C5aR (CD88), read-out: activity (group)): 200 to 2000 nM

B1: hrC5a: hrC5a (Sigma) used for stimulation of the enzyme release; agonist control in Table 5 (protein)
chain: TLQKKIEEIAAKYKHSVVKKCCYDGACVNNDETCEQRAARISLGPRCIKAFTECCVVASQLRANISHKDMQLGR
EC50 (human C5aR (CD88) [1]; agonistic activity, no preincubation or addition of C5a): 2.4 nM
